For this experiment, the target named is MAPK14 (p38 alpha) (Homo sapiens, UniProt Q16539). Kind of experiment: Z′-LYTE FRET kinase assay (SelectScreen, MAPK14 direct, Ser/Thr […] peptide). Format: biochemical.

Each structure is given as a SMILES string.

Chain of MAPK14 (p38 alpha) (Q16539 2-360): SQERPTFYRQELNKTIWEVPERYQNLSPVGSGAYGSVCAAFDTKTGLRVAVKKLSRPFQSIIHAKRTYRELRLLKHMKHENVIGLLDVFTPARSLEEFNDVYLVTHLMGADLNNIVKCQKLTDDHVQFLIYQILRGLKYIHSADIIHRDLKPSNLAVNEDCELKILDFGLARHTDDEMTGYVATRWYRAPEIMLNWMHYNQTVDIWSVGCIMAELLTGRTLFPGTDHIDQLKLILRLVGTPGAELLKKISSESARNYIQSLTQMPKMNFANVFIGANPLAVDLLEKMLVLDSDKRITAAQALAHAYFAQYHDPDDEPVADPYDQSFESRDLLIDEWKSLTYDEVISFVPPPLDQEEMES

Broadly, the IC50 is the point on the concentration scale where inhibition reaches its midpoint. The low end stands for greater potency, the high end for weaker potency. In turn, `C=C1C(=O)OC2C1C(OC(C)=O)C/C(C)=C/CC(OC(C)=O)/C(C)=C/CC(OC(C)=O)C1(C)OC21` (stereo not shown) [crassolide] registered an IC50 of approximately 5.15 µM.
